Results on five compounds are retold here after PubChem BioAssay AID330 (DTP/NCI, 2004).

“And” between values parts separate entries of the source, which are not always exact repeats. Equal entries are not always repeated. Toxic doses and inconclusive results are not listed.

This test has as its system P388 leukemia ip, CD2F1 mice, survival T/C. As to the kind of experiment: NCI In Vivo Anticancer Drug Screen. Data for tumor model P388 Leukemia (intraperitoneal) in CD2F1 (CDF1) mice. To be noted: endpoint: median survival time, higher = longer survival. The gist of the method: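 Mice carrying the transplanted tumor received test compound or vehicle. Survival was recorded in each group, and the value is the treated-group measurement divided by that of the vehicle-treated control group.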

Consider `O=c1[nH]cc(F)c(=O)[nH]1`, for which the T/C is 163 % of control (dose: 6.25 mg/kg/injection, schedule: Q01DX009 (ip), vehicle: saline); 167 % of control and 172 % of control (dose: 7.5 mg/kg/injection, schedule: Q01DX009 (ip), vehicle: saline); 107 % of control (dose: 7.5 mg/kg/injection, schedule: Q01DX009 (oral), vehicle: clinical formulation); 201 % of control (dose: 7.5 mg/kg/injection, schedule: Q03HX024 (ip), vehicle: saline); 107 % of control (dose: 7.5 mg/kg/injection, schedule: Q04DX003 (iv), vehicle: saline); 99 % of control (dose: 7.8 mg/kg/injection, schedule: Q04DX003 (ip), vehicle: saline). The T/C is 159 % of control (dose: 9.0 mg/kg/injection, schedule: Q01DX009 (ip), vehicle: saline); 228 % of control (dose: 10.0 mg/kg/injection, schedule: Q03HX024 (ip), vehicle: saline); 123 % of control (dose: 10.0 mg/kg/injection, schedule: Q04DX002 (ip), vehicle: saline); 153 % of control and 166 % of control (dose: 12.0 mg/kg/injection, schedule: Q01DX009 (ip), vehicle: saline); 167 % of control and 176 % of control (dose: 12.5 mg/kg/injection, schedule: Q01DX005 (ip), vehicle: saline); 166 % of control (dose: 12.5 mg/kg/injection, schedule: Q01DX009 (ip), vehicle: saline). The T/C is 106 % of control (dose: 13.0 mg/kg/injection, schedule: Q04DX002 (ip), vehicle: saline); 182 % of control and 213 % of control (dose: 13.2 mg/kg/injection, schedule: Q01DX009 (ip), vehicle: saline); 200 % of control (dose: 13.2 mg/kg/injection, schedule: Q01DX009 (ip), vehicle: water); 165 % of control and 181 % of control and 200 % of control (dose: 13.3 mg/kg/injection, schedule: Q01DX009 (ip), vehicle: saline sonified); 257 % of control (dose: 15.0 mg/kg/injection, schedule: Q03HX024 (ip), vehicle: saline); 109 % of control (dose: 15.0 mg/kg/injection, schedule: Q04DX003 (iv), vehicle: saline). Besides, the T/C was 212 % of control (dose: 16.0 mg/kg/injection, schedule: Q01DX009 (ip), vehicle: saline); 166 % of control (dose: 18.0 mg/kg/injection, schedule: Q01DX009 (ip), vehicle: saline); 170 % of control (dose: 19.0 mg/kg/injection, schedule: Q01DX009 (ip), vehicle: saline); 118 % of control (dose: 20.0 mg/kg/injection, schedule: Q01DX009 (ip), vehicle: water); 97 % of control (dose: 21.6 mg/kg/injection, schedule: Q04DX002 (ip), vehicle: saline); 118 % of control (dose: 22.5 mg/kg/injection, schedule: Q03HX024 (ip), vehicle: saline). Moreover, the T/C runs as follows: (dose: 24.0 mg/kg/injection, schedule: Q01DX009 (ip), vehicle: saline) 119 % of control and 223 % of control; (dose: 25.0 mg/kg/injection, schedule: Q01DX001 (iv), vehicle: saline) 120 % of control; (dose: 27.0 mg/kg/injection, schedule: Q01DX009 (ip), vehicle: water) 97 % of control; (dose: 27.0 mg/kg/injection, schedule: Q04DX003 (ip), vehicle: saline) 158 % of control; (dose: 28.0 mg/kg/injection, schedule: Q01DX009 (ip), vehicle: saline) 101 % of control; (dose: 28.8 mg/kg/injection, schedule: Q01DX005 (ip), vehicle: saline) 158 % of control. Further, the T/C is, setting by setting: (dose: 30.0 mg/kg/injection, schedule: Q03DX003 (ip), vehicle: saline) 162 % of control; (dose: 30.0 mg/kg/injection, schedule: Q04DX003 (iv), vehicle: saline) 124 % of control; (dose: 36.0 mg/kg/injection, schedule: Q01DX009 (ip), vehicle: saline) 100 % of control; (dose: 36.0 mg/kg/injection, schedule: Q04DX002 (ip), vehicle: saline) 112 % of control; (dose: 40.0 mg/kg/injection, schedule: Q03DX003 (ip), vehicle: saline) 165 % of control; (dose: 45.0 mg/kg/injection, schedule: Q01DX009 (ip), vehicle: saline) 99 % of control. Also, the T/C is, setting by setting: (dose: 48.0 mg/kg/injection, schedule: Q01DX005 (ip), vehicle: saline) 109 % of control; (dose: 50.0 mg/kg/injection, schedule: Q01DX001 (ip), vehicle: saline) 119 % of control; (dose: 50.0 mg/kg/injection, schedule: Q01DX005 (ip), vehicle: saline) 112 % of control; (dose: 50.0 mg/kg/injection, schedule: Q03DX003 (ip), vehicle: saline) 168 % of control; (dose: 50.0 mg/kg/injection, schedule: Q04DX002 (ip), vehicle: saline) 154 % of control; (dose: 54.0 mg/kg/injection, schedule: Q04DX003 (ip), vehicle: saline) 159 % of control. For the same compound, the T/C reads like this: (dose: 60.0 mg/kg/injection, schedule: Q01DX009 (oral), vehicle: clinical formulation) 94 % of control; (dose: 60.0 mg/kg/injection, schedule: Q03DX003 (ip), vehicle: saline) 99 % of control; (dose: 60.0 mg/kg/injection, schedule: Q04DX003 (ip), vehicle: water) 170 % of control; (dose: 60.0 mg/kg/injection, schedule: Q04DX003 (iv), vehicle: saline) 122 % of control; (dose: 66.0 mg/kg/injection, schedule: Q01DX001 (ip), vehicle: saline) 120 % of control; (dose: 75.0 mg/kg/injection, schedule: Q01DX005 (ip), vehicle: saline) 99 % of control. In addition, the T/C (dose: 75.0 mg/kg/injection, schedule: Q04DX003 (ip), vehicle: saline) is 185 % of control and 192 % of control and 199 % of control; the T/C (dose: 88.0 mg/kg/injection, schedule: Q01DX001 (ip), vehicle: saline) is 115 % of control; the T/C (dose: 90.0 mg/kg/injection, schedule: Q04DX003 (ip), vehicle: saline sonified) is 108 % of control; the T/C (dose: 100.0 mg/kg/injection, schedule: Q01DX001 (iv), vehicle: saline) is 164 % of control; the T/C (dose: 120.0 mg/kg/injection, schedule: Q01DX005 (ip), vehicle: saline) was 91 % of control; the T/C (dose: 120.0 mg/kg/injection, schedule: Q01DX009 (ip), vehicle: saline) is 83 % of control. For the same compound, the T/C reads like this: (dose: 120.0 mg/kg/injection, schedule: Q04DX003 (iv), vehicle: saline) 87 % of control; (dose: 125.0 mg/kg/injection, schedule: Q04DX003 (ip), vehicle: saline) 109 % of control; (dose: 133.3 mg/kg/injection, schedule: Q01DX001 (ip), vehicle: saline) 337 % of control; (dose: 135.0 mg/kg/injection, schedule: Q04DX003 (ip), vehicle: saline) 98 % of control; (dose: 166.7 mg/kg/injection, schedule: Q04DX003 (ip), vehicle: saline) 79 % of control and 81 % of control; (dose: 400.0 mg/kg/injection, schedule: Q01DX001 (iv), vehicle: saline) 100 % of control.

On to `O=C(c1ccccc1)c1nonc1C(=O)c1ccccc1`, for which the T/C (dose: 100.0 mg/kg/injection, schedule: Q01DX001 (ip), vehicle: saline with Tween-80) was 95 % of control; the T/C (dose: 200.0 mg/kg/injection, schedule: Q01DX001 (ip), vehicle: saline with Tween-80) is 104 % of control; the T/C (dose: 400.0 mg/kg/injection, schedule: Q01DX001 (ip), vehicle: saline with Tween-80) is 95 % of control.

For the compound `C#C/C=C/CC1OC(C(Br)CC)CC(OC(C)=O)C(Cl)CC1Cl` (stereo not drawn), the T/C (dose: 3.75 mg/kg/injection, schedule: Q01DX005 (ip), vehicle: Klucel (hydroxypropylcellulose) (HPC)) is 97 % of control; the T/C (dose: 7.5 mg/kg/injection, schedule: Q01DX005 (ip), vehicle: Klucel (hydroxypropylcellulose) (HPC)) was 120 % of control; the T/C (dose: 15.0 mg/kg/injection, schedule: Q01DX005 (ip), vehicle: Klucel (hydroxypropylcellulose) (HPC)) was 100 % of control; the T/C (dose: 30.0 mg/kg/injection, schedule: Q01DX005 (ip), vehicle: Klucel (hydroxypropylcellulose) (HPC)) is 98 % of control.

With `c1ccc(N/N=C2/CCN3CCCc4cccc2c43)cc1`, the T/C was 100 % of control (dose: 12.5 mg/kg/injection, schedule: Q04DX003 (ip), vehicle: DMSO); 101 % of control (dose: 25.0 mg/kg/injection, schedule: Q04DX003 (ip), vehicle: DMSO); 110 % of control (dose: 50.0 mg/kg/injection, schedule: Q04DX003 (ip), vehicle: DMSO).

Turning to `O=c1nc2ccccc2c2n1CCN2`, the T/C (dose: 50.0 mg/kg/injection, schedule: Q01DX005 (ip), vehicle: saline with Tween-80) is 105 % of control; the T/C (dose: 100.0 mg/kg/injection, schedule: Q01DX005 (ip), vehicle: saline with Tween-80) is 101 % of control; the T/C (dose: 200.0 mg/kg/injection, schedule: Q01DX005 (ip), vehicle: saline with Tween-80) was 100 % of control.
